# PubChem BioAssay AID1963843 (Molecular Pharmacology Branch, DTP, NCI, 2024)
# System: 616215-338-R-J1-PDC complex spheroid viability
# Assay: Anticancer human tumor 616215-338-R-J1-PDC patient-derived colon adenocarcinoma cell line growth inhibition [POLQ]
# Details: for IC50: curve of first compound; for viability, T/C: stronger effect = lower value
# How it was run: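 Growth inhibition in 3D: complex spheroids (tumor PDC, HUVEC, MSC) treated with POLQ inhibitor combinations; where Cmax unknown, highest tested concentration 10 microM, except SN-38 at 1 microM.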
# [1] = second compound 0.0316 µM, first compound 0.0316 µM
# [2] = second compound 0.0316 µM, first compound 0.1 µM
# [3] = second compound 0.0316 µM, first compound 0.316 µM
# [4] = second compound 0.0316 µM, first compound 1 µM
# [5] = second compound 0.0316 µM, first compound 3.16 µM
# [6] = second compound 0.0316 µM, first compound 10 µM
# [7] = second compound 0.1 µM, first compound 0.0316 µM
# [8] = second compound 0.1 µM, first compound 0.1 µM
# [9] = second compound 0.1 µM, first compound 0.316 µM
# [10] = second compound 0.1 µM, first compound 1 µM
# [11] = second compound 0.1 µM, first compound 3.16 µM
# [12] = second compound 0.1 µM, first compound 10 µM
# [13] = second compound 0.316 µM, first compound 0.0316 µM
# [14] = second compound 0.316 µM, first compound 0.1 µM
# [15] = second compound 0.316 µM, first compound 0.316 µM
# [16] = second compound 0.316 µM, first compound 1 µM
# [17] = second compound 0.316 µM, first compound 3.16 µM
# [18] = second compound 0.316 µM, first compound 10 µM
# [19] = second compound 1 µM, first compound 0.0316 µM
# [20] = second compound 1 µM, first compound 0.1 µM
# [21] = second compound 1 µM, first compound 0.316 µM
# [22] = second compound 1 µM, first compound 1 µM
# [23] = second compound 1 µM, first compound 3.16 µM
# [24] = second compound 1 µM, first compound 10 µM
# [25] = second compound 3.16 µM, first compound 0.0316 µM
# [26] = second compound 3.16 µM, first compound 0.1 µM
# [27] = second compound 3.16 µM, first compound 0.316 µM
# [28] = second compound 3.16 µM, first compound 1 µM
# [29] = second compound 3.16 µM, first compound 3.16 µM
# [30] = second compound 3.16 µM, first compound 10 µM
# [31] = second compound 10 µM, first compound 0.0316 µM
# [32] = second compound 10 µM, first compound 0.1 µM
# [33] = second compound 10 µM, first compound 0.316 µM
# [34] = second compound 10 µM, first compound 1 µM
# [35] = second compound 10 µM, first compound 3.16 µM
# [36] = second compound 10 µM, first compound 10 µM
# 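Note: spheroids exposed to compounds for one week before readout.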
# 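Throughout, for viability, T/C: percent viability relative to DMSO vehicle wells taken as 100%.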
smiles,measurement,setting,value
CCc1cc2c(N3CCc4c(cc(Cn5ccnc5)cc4-c4cn(C)nc4C(F)(F)F)C3=O)ccnc2c(OC)n1 + COC1C(OC(N)=O)C(O)C(Oc2ccc3c(O)c(NC(=O)c4ccc(O)c(CC=C(C)C)c4)c(=O)oc3c2C)OC1(C)C,IC50,second compound 0.0316 µM,> 10 µM
same,IC50,second compound 0.1 µM,> 10 µM
same,IC50,second compound 0.316 µM,> 10 µM
same,IC50,second compound 1 µM,9.75 µM
same,IC50,second compound 3.16 µM,9.64 µM
same,IC50,second compound 10 µM,8.33 µM
same,"viability, T/C",[1],97.2%
same,"viability, T/C",[2],108%
same,"viability, T/C",[3],111%
same,"viability, T/C",[4],106%
same,"viability, T/C",[5],80%
same,"viability, T/C",[6],52.8%
same,"viability, T/C",[7],106%
same,"viability, T/C",[8],108%
same,"viability, T/C",[9],92.9%
same,"viability, T/C",[10],106%
same,"viability, T/C",[11],77%
same,"viability, T/C",[12],50.3%
same,"viability, T/C",[13],96%
same,"viability, T/C",[14],103%
same,"viability, T/C",[15],115%
same,"viability, T/C",[16],102%
same,"viability, T/C",[17],66.5%
same,"viability, T/C",[18],53.8%
same,"viability, T/C",[19],105%
same,"viability, T/C",[20],98.7%
same,"viability, T/C",[21],99%
same,"viability, T/C",[22],100%
same,"viability, T/C",[23],81.4%
same,"viability, T/C",[24],49.3%
same,"viability, T/C",[25],106%
same,"viability, T/C",[26],100%
same,"viability, T/C",[27],103%
same,"viability, T/C",[28],98.2%
same,"viability, T/C",[29],74.8%
same,"viability, T/C",[30],49.2%
same,"viability, T/C",[31],109%
same,"viability, T/C",[32],97.7%
same,"viability, T/C",[33],102%
same,"viability, T/C",[34],93.1%
same,"viability, T/C",[35],67.7%
same,"viability, T/C",[36],46.7%
COc1cc2cc(C(=O)CCC(=O)O)sc2cc1OC + COC1C(OC(N)=O)C(O)C(Oc2ccc3c(O)c(NC(=O)c4ccc(O)c(CC=C(C)C)c4)c(=O)oc3c2C)OC1(C)C,IC50,second compound 0.0316 µM,> 10 µM
same,IC50,second compound 0.1 µM,> 10 µM
same,IC50,second compound 0.316 µM,> 10 µM
same,IC50,second compound 1 µM,> 10 µM
same,IC50,second compound 3.16 µM,> 10 µM
same,IC50,second compound 10 µM,> 10 µM
same,"viability, T/C",[1],110%
same,"viability, T/C",[2],103%
same,"viability, T/C",[3],102%
same,"viability, T/C",[4],105%
same,"viability, T/C",[5],102%
same,"viability, T/C",[6],113%
same,"viability, T/C",[7],95.4%
same,"viability, T/C",[8],101%
same,"viability, T/C",[9],109%
same,"viability, T/C",[10],97.7%
same,"viability, T/C",[11],103%
same,"viability, T/C",[12],97.2%
same,"viability, T/C",[13],115%
same,"viability, T/C",[14],94.9%
same,"viability, T/C",[15],107%
same,"viability, T/C",[16],95.1%
same,"viability, T/C",[17],101%
same,"viability, T/C",[18],101%
same,"viability, T/C",[19],102%
same,"viability, T/C",[20],88.2%
same,"viability, T/C",[21],106%
same,"viability, T/C",[22],98.7%
same,"viability, T/C",[23],99.7%
same,"viability, T/C",[24],106%
same,"viability, T/C",[25],107%
same,"viability, T/C",[26],99.9%
same,"viability, T/C",[27],109%
same,"viability, T/C",[28],102%
same,"viability, T/C",[29],99.6%
same,"viability, T/C",[30],113%
same,"viability, T/C",[31],109%
same,"viability, T/C",[32],91.7%
same,"viability, T/C",[33],102%
same,"viability, T/C",[34],104%
same,"viability, T/C",[35],97%
same,"viability, T/C",[36],102%
O=C(Nc1ccc(O)c(NS(=O)(=O)c2ccc(F)cc2)c1)c1ccc(-c2ccccc2)cc1 + COC1C(OC(N)=O)C(O)C(Oc2ccc3c(O)c(NC(=O)c4ccc(O)c(CC=C(C)C)c4)c(=O)oc3c2C)OC1(C)C,IC50,second compound 0.0316 µM,> 10 µM
same,IC50,second compound 0.1 µM,> 10 µM
same,IC50,second compound 0.316 µM,> 10 µM
same,IC50,second compound 1 µM,> 10 µM
same,IC50,second compound 3.16 µM,> 10 µM
same,IC50,second compound 10 µM,> 10 µM
same,"viability, T/C",[1],103%
same,"viability, T/C",[2],103%
same,"viability, T/C",[3],104%
same,"viability, T/C",[4],109%
same,"viability, T/C",[5],118%
same,"viability, T/C",[6],97.8%
same,"viability, T/C",[7],102%
same,"viability, T/C",[8],100%
same,"viability, T/C",[9],103%
same,"viability, T/C",[10],95.1%
same,"viability, T/C",[11],99.6%
same,"viability, T/C",[12],118%
same,"viability, T/C",[13],101%
same,"viability, T/C",[14],98.3%
same,"viability, T/C",[15],91.3%
same,"viability, T/C",[16],93.8%
same,"viability, T/C",[17],106%
same,"viability, T/C",[18],92.2%
same,"viability, T/C",[19],105%
same,"viability, T/C",[20],107%
same,"viability, T/C",[21],101%
same,"viability, T/C",[22],116%
same,"viability, T/C",[23],101%
same,"viability, T/C",[24],105%
same,"viability, T/C",[25],102%
same,"viability, T/C",[26],105%
same,"viability, T/C",[27],100%
same,"viability, T/C",[28],105%
same,"viability, T/C",[29],107%
same,"viability, T/C",[30],93.9%
same,"viability, T/C",[31],108%
same,"viability, T/C",[32],100%
same,"viability, T/C",[33],98.5%
same,"viability, T/C",[34],103%
same,"viability, T/C",[35],107%
same,"viability, T/C",[36],88.8%
